A short description of data set [1]: Biological activity of the cis-isomer. The note with it: in words, cis/trans comparison.
For data set [2], the system named is mice. Description: Induced tremors in mice, Table 1. The note with it: Mus musculus, ip, read-out: Induced tremors ED50 (ip). In kind it is in vivo. The text has this:
(§1) cat mice cat Guinea pig ileum
(§2) *with 95% confidence limits (Litchfield et al, 1949)

Another data set deals with blood pressure. As to the kind of experiment: Fall in blood pressure in vivo, Table 1. Also on record: species or system cat. As to conditions: iv; for ED50: Felis catus, read-out: Fall blood pressure ED50 (iv); for Fall blood pressure EPMR: equipotent molar ratio relative to ACh.
Text: as §1, §2
(§3) **EPMR: equipotent molar ratio relative to ACh. nmole: nannomoles

For another data set, the system named is Guinea pig ileum. As to the kind of experiment: Guinea pig ileum induced contraction in vitro, Table 1. In kind it is cell-based. As to conditions: equipotent molar ratio relative to ACh.
Text: as §1
(iv) induced contraction
as §3

Data set [3] can be described thus: Acute toxicity in mice, Table 2. The note with it: mouse, in vivo. The text has this: (§4) *with 95% confidence limits, Litchfield & Wilcoxon, (1949).
Data set [4] has as its system mice. Description: Tremors (tremorigenic activity) in mice, Table 2. Type of data set: in vivo. The note with it: Mus musculus, ip, read-out: Tremors ED50 (ip).
Text: (§5) Acute Toxicity, tremorigenic and sialigenic
as §4

Data set [5] has as its system mice. Description: Salivation (sialigenic activity) in mice, Table 2. Type of data set: in vivo. As to conditions: Mus musculus, ip, read-out: Salivation ED50 (ip).
Text: as §5, §4
**Chiang & Leaders, 1971

Data set [6] relates to mice. As to conditions: Chiang & Leaders, 1971; cited from earlier work.
A further data set relates to SCG. As to the kind of experiment: SCG (cat), antagonism to McN-A-343 induced contraction of NM. In kind it is in vivo. The text has this: |induced contraction of NM
For data set [7], the system named is Oxotromorine induced salivation. Description: Antagonism to oxotremorine induced salivation. In kind it is in vivo, Mice. As to conditions: Mus musculus, sc. As for the experimental part: (§6) *With 95% confidence limits (Litchfield and Wilcoxon, 1949).
**Oxotromorine, 170 μg/kg, ip (1.15 ED50) induced salivation.
(§7) ^+ R1 =R2 =.PHI.,HCl is injected 20 min. prior to […]

Data set [8] concerns Oxotromorine induced tremors. As to the kind of experiment: Antagonism to oxotremorine induced tremors. As to conditions: Mus musculus, sc. In kind it is in vivo, Mice. How it is done:
as §6, §7

Data set [9] has as its system autonomic ganglionic and central muscarinic receptors. Description: Cholinergic stimulant activity and specificity. The note with it: in words.
The subject of data set [10] is enzyme which desactivates acetylcholine. Description: Stability to the enzyme which desactivates acetylcholine. Type of data set: in vitro ADME. As to conditions: in words.
Another data set is described as follows: Anticholinergic activity. The note with it: in words.
In the next data set the target is T1, Guinea-pig ileum (Cavia porcellus, UniProt H0W1Z3).
T1 construct: Guinea-pig ileum, log Ki; from tissue; host or cells: guinea-pig ileum
T1 sequence (H0W1Z3 1-590): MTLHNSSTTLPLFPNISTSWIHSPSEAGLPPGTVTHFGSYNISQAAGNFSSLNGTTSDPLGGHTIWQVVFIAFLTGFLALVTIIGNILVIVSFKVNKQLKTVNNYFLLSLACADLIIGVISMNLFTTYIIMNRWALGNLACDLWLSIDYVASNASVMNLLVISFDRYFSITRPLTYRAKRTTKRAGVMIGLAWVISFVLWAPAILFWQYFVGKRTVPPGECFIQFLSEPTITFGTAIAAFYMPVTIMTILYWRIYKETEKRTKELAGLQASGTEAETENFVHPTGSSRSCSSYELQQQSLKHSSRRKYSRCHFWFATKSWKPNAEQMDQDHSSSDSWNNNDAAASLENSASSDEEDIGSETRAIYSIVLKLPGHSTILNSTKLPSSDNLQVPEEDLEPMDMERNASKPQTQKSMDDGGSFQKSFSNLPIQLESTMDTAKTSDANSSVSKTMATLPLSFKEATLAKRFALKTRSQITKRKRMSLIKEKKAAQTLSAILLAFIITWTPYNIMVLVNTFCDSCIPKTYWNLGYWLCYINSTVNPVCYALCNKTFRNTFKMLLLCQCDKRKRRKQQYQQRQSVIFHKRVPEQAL
Description: Antagonism in guinea-pig ileum (log Ki), Table 3. Type of data set: cell-based. The note with it: printed as log Ki (negative).

A short description of another data set: LD50 in mice, Table 3. As to conditions: mouse, in vivo, sc.
Another data set concerns mydriatic activity. Description: Relative mydriatic activity, Table 3. Type of data set: in vivo. The note with it: atropine sulphate = 1.
In data set [11] the test system is Oxotromorine induced tremors and salivation. As to the kind of experiment: CNS/PNS activity (ED50 blockade of tremors / ED50 blockade of salivation). In kind it is in vivo, Mice. As to conditions: ED50 for blockade of tremors divided by ED50 for blockade of salivation; 95% confidence limits.
Text: as §6

The subject of data set [12] is Physostigmine induced lethality. Description: Antagonism to physostigmine induced lethality. In kind it is in vivo, Mice. As to conditions: Mus musculus, sc.
Text: as §6

The text below walks through data of patent US4104397A, “Spiro (1,3-dioxolane-4,3') quinuclidine compounds” (The Purdue Frederick Company, priority 1975, dated 1978).

Molecules are shown by their SMILES. Several values for one entry are separate records, joined by “and”; a condition that tells them apart may be missing. Equal values may be shown once. Where a name gives a salt, the structure may show the parent alone. Read-outs that look alike come from different tables or passages of the source.

In the case of `CC1OCC2(CN3CCC2CC3)O1` (single isomer, unassigned; isomer 2) [cis-isomer, 2-methyl spiro (1,3-dioxolane-4,3') quinuclidine], the “biological activity of the cis-isomer” value in data set [1] is “greater biological activity”.
Take `CC(=O)OC1CN2CCC1CC2` (stereo not drawn) [3-Acetoxyquinuclidine]: the ED50 in the data set on mice [2] is 7.5 mg/kg and 36.5 µmol/kg; with blood pressure, 0.0002 mg/kg and 0.001 µmol/kg; in the data set on mice [4], 7.5 mg/kg and 36.5 µmol/kg; with mice [5], 1.8 mg/kg and 8.8 µmol/kg. Moreover, the “Fall blood pressure EPMR” value with blood pressure (cat) came out at 6.25. The “Guinea pig ileum induced contraction EPMR” value with Guinea pig ileum was found to be 14. This compound came in with an LD50 in data set [3] (sc) of 112 mg/kg. In addition, the “Salivation ED50 (ip)” value with mice [6] was 2.9 mg/kg.
`CC(=O)OC(C)C[N+](C)(C)C` (stereo not drawn) [Acetyl-β-methyl choline]: the “Guinea pig ileum induced contraction EPMR” value in the data set on Guinea pig ileum was determined as 3.6.
For `CC(=O)OCC[N+](C)(C)C` [Acetylcholine], in the data set on blood pressure (cat), the ED50 came to 0.00016 µmol/kg.
As for `CN1[C@@H]2CC[C@H]1CC(OC(=O)C(CO)c1ccccc1)C2` (stereo partly drawn) [Atropine Sulphate, reference compound], the “antagonism to McN-A-343 induced contraction of NM ED50 (ia)” value in the data set on SCG came out at 1.4 µmol. Also, the ED50 in data set [7] worked out at 0.039 µmol/kg; in [8], 1 µmol/kg.
Take `CC1OCC2(CN3CCC2CC3)O1` (stereo not drawn) [Example 1, 2-Methyl spiro (1,3-dioxolane-4,3')Quinuclidine]: in [9], the cholinergic stimulant activity entry was “specific and powerful cholinergic stimulant”; the “specificity towards autonomic ganglionic and central muscarinic receptors” value is recorded as “high degree of specificity”. In addition, the “destruction by the enzyme which desactivates acetylcholine” value in [10] is on record as “not destroyed by the enzyme which desactivates acetylcholine”.
As for `c1ccc(C2(c3ccccc3)OCC3(CN4CCC3CC4)O2)cc1` (stereo not drawn) [Example 3, 2,2-diphenyl spiro (1,3-dioxolane-4,3')quinuclidine], the anticholinergic activity entry in “Anticholinergic activity” is reported as “powerful anticholinergic agent”.
For the compound `CC1OCC2(CN3CCC2CC3)O1` (stereo not drawn) [I,R1 =H,R2 =-CH3.HCl, 2-methyl spiro (1,3-dioxolane-4,3') quinuclidine], the ED50 in the data set on mice [2] (mice) is 4.5 mg/kg and 20.5 µmol/kg; in the data set on blood pressure (cat), 0.0066 mg/kg and 0.0301 µmol/kg; in the data set on mice [4] (mice), 4.5 mg/kg and 20.5 µmol/kg; in the data set with mice [5] (mice) it was 3 mg/kg and 13.7 µmol/kg. Further, the “Fall blood pressure EPMR” value in the data set with blood pressure (cat) stood at 188. The “Guinea pig ileum induced contraction EPMR” value in the data set on Guinea pig ileum came out at 240. The same compound registered an LD50 in data set [3] (sc) of 220 mg/kg.
In the case of `c1ccc(C2(c3ccccc3)OCC3(CN4CCC3CC4)O2)cc1` (stereo not drawn) [I,R1 =R2 =phenyl,HCl, 2,2-diphenyl spiro (1,3-dioxolane-4,3')quinuclidine], the Ki at Guinea-pig ileum was 251 pM. Moreover, the “antagonism to McN-A-343 induced contraction of NM ED50 (ia)” value with SCG was determined as 0.5 µmol. Besides, the LD50 in “LD50 in mice, Table 3” came to 40 mg/kg. The same compound yielded a Relative mydriatic activity with mydriatic activity of 1.5. In addition, the results for the ED50 in data set [7], in data set [8] and in [12] were 0.28 µmol/kg, 0.31 µmol/kg and 0.2 µmol/kg, respectively. In data set [11], the CNS/PNS activity was 1.1(0.77-1.56).
On to `O=C1CCCN1CC#CCN1CCCC1` [Oxotremorine], for which the LD50 in data set [3] (ip) is 5 mg/kg. Further, the ED50 with mice [4] (mice) was 0.14 mg/kg and 0.73 µmol/kg; with mice [5] (mice), 0.12 mg/kg and 0.63 µmol/kg.

For orientation: ED50 means the dose that gives a 50% effect, or the effect in half of the subjects. In general, LD50 refers to the dose expected to kill half of the subjects tested. Higher therefore signals lower toxicity. Broadly, the Ki is a dissociation constant, usually derived from enzyme kinetics or from competition with a known ligand. Read a low Ki as a stronger hold on the target.
